Data from PMC9011347, “Small-Molecule Inhibitors Targeting Lipolysis in Human Adipocytes” (Journal of the American Chemical Society, 2022).

Key:
[1] = system: lipoprotein lipase (LPL) and hepatic lipase (HL); assay: Heparin-releasable TAG hydrolase activity in post-heparin plasma; assay type: biochemical; conditions: NG-497 100 µM, radiolabeled triolein
Procedure: (§1) Fig. S3: Investigation of off-target effects of NG-497 on structurally and functionally related lipid hydrolases. (a) PNPLA1-dependent formation of acylceramides was monitored in a cell-based assay in HEK293T cells. Experiments were performed in the presence or absence of NG-497 (40 µM) and the non-selective lipase inhibitor Orlistat (40 µM). Orlistat, but not NG-497, inhibited PNPLA1/CGI-58-dependent ω-O-acylceramide formation. (b-h) Enzymes were overexpressed in Expi293 cells and cell lysates were used as source of enzymatic activity. […] Experiments were performed in the presence or absence of NG-497 (100 µM) and the formation of reaction products was monitored. […]
(§2) Data were calculated relative to the basal activity detected in LacZ-transfected controls. […]
(§3) LPL activity was inhibited using an anti-LPL antibody. All data are presented as mean ± S.D. Statistical significance was determined via ANOVA followed by Bonferroni post hoc test ( ***, p < 0.001). […]
(§4) Released free fatty acids were quantified via NEFA C kit (Fujifilm Wako Chemicals, Neuss, Germany) and release of p-nitrophenol was measured at 405 nm. […] Cellular ω-O-acylceramide formation was monitored using [1-14C]linoleic acid as tracer. […] The activity of purified human pancreatic lipase (MilliporeSigma #SRE0028) was determined as previously described7 in the presence or absence of NG-497 (100µM) or Orlistat (20 µM). […]

PNPLA1 = target: T1, PNPLA1 (Homo sapiens, UniProt Q8N8W4); assay: PNPLA1-dependent ω-O-acylceramide formation in HEK293T cells; assay type: cell-based; conditions: NG-497 40 µM, Orlistat 40 µM
T1 construct: expressed in transfected cells; host or cells: HEK293T cells
T1 sequence (Q8N8W4 whole entry): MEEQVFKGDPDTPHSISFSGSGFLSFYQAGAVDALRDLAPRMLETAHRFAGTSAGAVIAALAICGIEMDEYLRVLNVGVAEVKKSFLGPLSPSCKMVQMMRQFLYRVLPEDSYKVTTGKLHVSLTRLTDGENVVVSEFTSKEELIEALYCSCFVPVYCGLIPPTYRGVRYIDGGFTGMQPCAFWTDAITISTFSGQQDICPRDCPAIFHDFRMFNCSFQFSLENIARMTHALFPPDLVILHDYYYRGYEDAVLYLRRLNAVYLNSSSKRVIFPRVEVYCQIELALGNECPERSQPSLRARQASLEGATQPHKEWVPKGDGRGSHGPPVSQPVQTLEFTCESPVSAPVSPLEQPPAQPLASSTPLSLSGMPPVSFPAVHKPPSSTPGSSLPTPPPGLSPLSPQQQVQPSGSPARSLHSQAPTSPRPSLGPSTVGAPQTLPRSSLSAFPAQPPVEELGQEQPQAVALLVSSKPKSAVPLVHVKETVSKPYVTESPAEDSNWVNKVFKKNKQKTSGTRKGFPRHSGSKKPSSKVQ
Procedure: as §1, §2, §3, §4

For `CCOc1ccc(-c2cc(OC)cc(C(=O)OC(C)C)n2)cc1` [NG-497], the “inhibition of heparin-releasable TAG hydrolase activity in human serum” value [1] was “did not observe inhibition” and the “PNPLA1/CGI-58-dependent ω-O-acylceramide formation” value (PNPLA1) was “not affected”.
